System: 636577-100-R-J1-PDC complex spheroid viability
Assay: Anticancer human tumor 636577-100-R-J1-PDC patient-derived endometrial adenocarcinoma cell line growth inhibition [GQUAD]
Details: for IC50: curve of first compound; for viability, T/C: stronger effect = lower value
Source text: DNA G-quadruplex Stabilizer Agents in Combinations in Complex Spheroids
A high-throughput screen of multi-cell type tumor spheroids was designed to identify active combinations of DNA G-quadruplex stabilizer agents and targeted small molecules. Complex spheroids include a stromal component modeled by human endothelial cells (HUVEC) and fibroblasts modeled by human mesenchymal stem cells (MSCs). The concentration ranges selected for each drug and investigational agent were based upon clinically achievable concentrations if the clinical Cmax of the agent was known.
Compounds. The drugs and investigational agents: pidnarulex (CX-5461; NSC782164), APTO-253 (NSC789042), BRACO-19 (NSC847499), peposertib (NSC802822), ceralasertib (NSC780249), elimusertib (NSC800525), camonsertib (NSC841442), AZD-1390 (NSC803789), olaparib (NSC753686), talazoparib (NSC767125), ART-558 (NSC835418), sotorasib (NSC818433), MRTX-1133 (NSC836407), SN-38 (NSC673596), topotecan (NSC609699), etoposide (NSC141540), doxorubicin (NSC123127), gemcitabine (NSC613327), 5-fluorouracil (NSC19893), paclitaxel (NSC125973), vemurafenib (NSC761431), panobinostat (NSC761190), R-306465 (JNJ-16241199; NSC773264), adavosertib (NSC754352), TP-3654 (NSC805149), carboplatin (NSC241240), KSQ-4279 (NSC840948), and staurosporine (NSC755774) were obtained from the National Cancer Institute (NCI) Developmental Therapeutics Program Chemical Repository (34). The FDA-approved anticancer drug set is available from the NCI Developmental Therapeutics Program. […] The stock solutions were prepared in dimethyl sulfoxide (DMSO, Sigma-Aldrich, St. Louis, MO, cat. D2650) at 800-fold the tested concentration and stored at -70 degrees C prior to their use. All drugs and investigational agents were tested over a range starting from a high concentration at or near the clinical Cmax and decreasing in half-log increments. If the clinical Cmax for an agent had not been determined, the highest concentration tested was 10 microM.
2.3 Cell Culture. All cells were maintained in an incubator at 37 degrees C and 5% CO2 with 95% humidity. The PDC lines were cultured according to standard operating procedures established by the NCI PDMR. All PDCs were thawed and cultured in Matrigel-coated flasks prepared with a working solution of 1X Ham's F-12 nutrient mix, without supplementation (Invitrogen, cat. 11765054), 100 U/mL penicillin-streptomycin (Invitrogen, cat. 15140122), and 2.5% Matrigel (Corning Inc., cat. 354248) for the first three passages. The 857933-349-R-J2-PDC line was cultured in 6C/Colon 1B media, which includes advanced DMEM/F-12 (Thermo Fisher Scientific, cat. 12634028), 10 mM HEPES (Thermo Fisher Scientific, cat. 15630080), 1X GlutaMAX supplement (Thermo Fisher Scientific, cat. 35050061), 0.1 mg/mL primocin (InvivoGen, cat. ant-pm-2), 10% defined fetal bovine serum, heat inactivated (HyClone Laboratories Inc., cat. SH30070.03HI), 50% L-WRN conditioned media (ATCC, cat. CRL-3276), 1.25 mM N-Acetyl-L-cysteine (Sigma-Aldrich, cat. A9165), 10 mM nicotinamide (Sigma-Aldrich, cat. N0636), 1X B-27 supplement (Thermo Fisher Scientific, cat. 17504044), 1X N-2 supplement (Thermo Fisher Scientific, cat. 17502048), 10 microM Y-27632 dihydrochloride (Tocris Bioscience, cat. 1254), and 50 ng/mL human EGF recombinant protein (Thermo Fisher Scientific, cat. PHG0311). The 485176-168-R4-J1-PDC line was cultured in Panc media, which includes all 6C/Colon 1B media components plus 100 ng/mL human FGF-10 (Thermo Fisher Scientific, cat. 100-26), 500 nM SB-431542 (Selleckchem, cat. S1067), and gastrin (Tocris, cat. 3006).
[…]

[1] = second compound 0.0316 µM, first compound 0.0316 µM
[2] = second compound 0.0316 µM, first compound 0.1 µM
[3] = second compound 0.0316 µM, first compound 0.316 µM
[4] = second compound 0.0316 µM, first compound 1 µM
[5] = second compound 0.0316 µM, first compound 3.16 µM
[6] = second compound 0.0316 µM, first compound 10 µM
[7] = second compound 0.1 µM, first compound 0.0316 µM
[8] = second compound 0.1 µM, first compound 0.1 µM
[9] = second compound 0.1 µM, first compound 0.316 µM
[10] = second compound 0.1 µM, first compound 1 µM
[11] = second compound 0.1 µM, first compound 3.16 µM
[12] = second compound 0.1 µM, first compound 10 µM
[13] = second compound 0.316 µM, first compound 0.0316 µM
[14] = second compound 0.316 µM, first compound 0.1 µM
[15] = second compound 0.316 µM, first compound 0.316 µM
[16] = second compound 0.316 µM, first compound 1 µM
[17] = second compound 0.316 µM, first compound 3.16 µM
[18] = second compound 0.316 µM, first compound 10 µM
[19] = second compound 1 µM, first compound 0.0316 µM
[20] = second compound 1 µM, first compound 0.1 µM
[21] = second compound 1 µM, first compound 0.316 µM
[22] = second compound 1 µM, first compound 1 µM
[23] = second compound 1 µM, first compound 3.16 µM
[24] = second compound 1 µM, first compound 10 µM
[25] = second compound 3.16 µM, first compound 0.0316 µM
[26] = second compound 3.16 µM, first compound 0.1 µM
[27] = second compound 3.16 µM, first compound 0.316 µM
[28] = second compound 3.16 µM, first compound 1 µM
[29] = second compound 3.16 µM, first compound 3.16 µM
[30] = second compound 3.16 µM, first compound 10 µM
[31] = second compound 10 µM, first compound 0.0316 µM
[32] = second compound 10 µM, first compound 0.1 µM
[33] = second compound 10 µM, first compound 0.316 µM
[34] = second compound 10 µM, first compound 1 µM
[35] = second compound 10 µM, first compound 3.16 µM
[36] = second compound 10 µM, first compound 10 µM
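Further: viability read after seven days of drug exposure.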
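Wherever viability, T/C is given: luminescence signal used as a proxy for viable cells; 100% = DMSO vehicle control wells.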

CC1COCCN1c1cc(C2(S(C)(=N)=O)CC2)nc(-c2ccnc3[nH]ccc23)n1 (centres undefined) + CN(C)c1ccc(Nc2c3ccc(NC(=O)CCN4CCCC4)cc3nc3cc(NC(=O)CCN4CCCC4)ccc23)cc1
IC50 (second compound 0.0316 µM): 1040 nM | IC50 (second compound 0.1 µM): 934 nM | IC50 (second compound 0.316 µM): 463 nM | IC50 (second compound 1 µM): 626 nM | IC50 (second compound 3.16 µM): < 31.6 nM | IC50 (second compound 10 µM): < 31.6 nM | viability, T/C [1]: 91.4% | viability, T/C [2]: 74.6% | viability, T/C [3]: 89.4% | viability, T/C [4]: 51.2% | viability, T/C [5]: 21.4% | viability, T/C [6]: 14% | viability, T/C [7]: 78.4% | viability, T/C [8]: 71.3% | viability, T/C [9]: 89.4% | viability, T/C [10]: 48.1% | viability, T/C [11]: 22.4% | viability, T/C [12]: 14.6% | viability, T/C [13]: 75.7% | viability, T/C [14]: 67.3% | viability, T/C [15]: 54.2% | viability, T/C [16]: 41.2% | viability, T/C [17]: 24.4% | viability, T/C [18]: 14.1% | viability, T/C [19]: 42.9% | viability, T/C [20]: 80.2% | viability, T/C [21]: 65% | viability, T/C [22]: 41.2% | viability, T/C [23]: 23.6% | viability, T/C [24]: 16% | viability, T/C [25]: 34.6% | viability, T/C [26]: 45.8% | viability, T/C [27]: 34% | viability, T/C [28]: 29.5% | viability, T/C [29]: 18.3% | viability, T/C [30]: 13.2% | viability, T/C [31]: 6.13% | viability, T/C [32]: 5.83% | viability, T/C [33]: 5.26% | viability, T/C [34]: 5.47% | viability, T/C [35]: 3.58% | viability, T/C [36]: 1.72%

O=C(c1cc(Cc2n[nH]c(=O)c3ccccc23)ccc1F)N1CCN(C(=O)C2CC2)CC1 + CN(C)c1ccc(Nc2c3ccc(NC(=O)CCN4CCCC4)cc3nc3cc(NC(=O)CCN4CCCC4)ccc23)cc1
IC50 (second compound 0.0316 µM): 1580 nM | IC50 (second compound 0.1 µM): 1450 nM | IC50 (second compound 0.316 µM): 3730 nM | IC50 (second compound 1 µM): 1360 nM | IC50 (second compound 3.16 µM): < 31.6 nM | IC50 (second compound 10 µM): < 31.6 nM | viability, T/C [1]: 93.1% | viability, T/C [2]: 54.9% | viability, T/C [3]: 71% | viability, T/C [4]: 63.8% | viability, T/C [5]: 37.7% | viability, T/C [6]: 33.2% | viability, T/C [7]: 69.7% | viability, T/C [8]: 54.2% | viability, T/C [9]: 52.1% | viability, T/C [10]: 57.7% | viability, T/C [11]: 46.2% | viability, T/C [12]: 31.7% | viability, T/C [13]: 50.3% | viability, T/C [14]: 53.6% | viability, T/C [15]: 64.3% | viability, T/C [16]: 61.5% | viability, T/C [17]: 50.1% | viability, T/C [18]: 34.1% | viability, T/C [19]: 63.7% | viability, T/C [20]: 62.4% | viability, T/C [21]: 60.5% | viability, T/C [22]: 54.3% | viability, T/C [23]: 38.9% | viability, T/C [24]: 28.8% | viability, T/C [25]: 29.2% | viability, T/C [26]: 40.2% | viability, T/C [27]: 34.2% | viability, T/C [28]: 30.8% | viability, T/C [29]: 25.6% | viability, T/C [30]: 21.1% | viability, T/C [31]: 5.92% | viability, T/C [32]: 4.61% | viability, T/C [33]: 4.06% | viability, T/C [34]: 5.25% | viability, T/C [35]: 6.06% | viability, T/C [36]: 4.36%

Reference: PubChem BioAssay AID2060504 (Molecular Pharmacology Branch, DTP, NCI, 2025)
